The numbers were not newly measured in patent US20240009181A1, “METHOD FOR THE TREATMENT AND PROPHYLAXIS OF SUBSTANCE-RELATED AND/OR ADDICTIVE DISORDERS INCLUDING SUBSTANCE/MEDICATION-INDUCED DEPRESSIVE DISORDERS, BIPOLAR AND RELATED DISORDERS, AND ANXIETY DISORDERS AND COMPOSITIONS USEFUL FOR THE SAME” (priority 2022, published 2024), which cites them from elsewhere.

For data set [1] the following is noted: in vivo.
In another data set the test system is opioid use disorder. The following applies: vs. 23% given placebo.

`O=C1CCc2ccc(OCCCCN3CCN(c4cccc(Cl)c4Cl)CC3)cc2N1` [aripiprazole]: the half-life result in data set [1] is listed as “about 75 hours”. As to `O=c1ccc2ccc(OCCCCN3CCN(c4cccc5sccc45)CC3)cc2[nH]1` [brexpiprazole], the half-life result in data set [1] is listed as “about 91 hours”. `O=C1CC[C@@]2(O)[C@H]3Cc4ccc(O)c5c4[C@@]2(CCN3CC2CC2)[C@H]1O5` [naltrexone]: in the data set with opioid use disorder, the “complete abstinence (opioid-free over 19 weeks of treatment), share of subjects” value is listed as 36%.

`CC1(C)O[C@@H]2[C@@H](CO[C@@]3(COS(N)(=O)=O)OC(C)(C)O[C@@H]23)O1` [topiramate]: the half-life entry in data set [1] was “about 21 hours”.
